Key:
Assay in all cases: kinome screen (33PanQinase)
Type in all cases: biochemical
IGF1R = biological target: T1, IGF1R (Homo sapiens, UniProt P08069)
T1 construct: purchased Reaction Biology Europe GmbH (formerly ProQinase)
Protocol: (§1) The Kinome Screening was performed by Reaction Biology Europe GmbH (http://reactionbiology.com; Freiburg i. Br., Germany).

COT = biological target: T2, COT (Homo sapiens, UniProt P41279)
T2 construct: purchased Reaction Biology Europe GmbH (formerly ProQinase)
T2 sequence (P41279 whole entry): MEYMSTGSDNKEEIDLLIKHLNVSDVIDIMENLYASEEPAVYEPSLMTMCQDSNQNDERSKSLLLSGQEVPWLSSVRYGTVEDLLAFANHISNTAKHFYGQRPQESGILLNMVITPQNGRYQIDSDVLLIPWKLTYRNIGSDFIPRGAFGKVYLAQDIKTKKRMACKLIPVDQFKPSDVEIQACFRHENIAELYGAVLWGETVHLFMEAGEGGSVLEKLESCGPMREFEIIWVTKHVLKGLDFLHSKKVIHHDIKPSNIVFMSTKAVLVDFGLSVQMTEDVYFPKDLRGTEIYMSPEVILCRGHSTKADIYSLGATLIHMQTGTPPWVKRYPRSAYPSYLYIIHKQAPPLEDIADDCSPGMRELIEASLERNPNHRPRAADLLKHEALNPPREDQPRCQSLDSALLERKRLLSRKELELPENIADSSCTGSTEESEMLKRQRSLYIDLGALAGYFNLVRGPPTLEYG
Protocol: as §1

GSK3α = biological target: T3, GSK3α (Homo sapiens, UniProt P49840)
T3 construct: purchased Reaction Biology Europe GmbH (formerly ProQinase)
Protocol: as §1

NLK = biological target: T4, NLK (Homo sapiens, UniProt Q9UBE8)
T4 construct: purchased Reaction Biology Europe GmbH (formerly ProQinase)
T4 sequence (Q9UBE8 1-527): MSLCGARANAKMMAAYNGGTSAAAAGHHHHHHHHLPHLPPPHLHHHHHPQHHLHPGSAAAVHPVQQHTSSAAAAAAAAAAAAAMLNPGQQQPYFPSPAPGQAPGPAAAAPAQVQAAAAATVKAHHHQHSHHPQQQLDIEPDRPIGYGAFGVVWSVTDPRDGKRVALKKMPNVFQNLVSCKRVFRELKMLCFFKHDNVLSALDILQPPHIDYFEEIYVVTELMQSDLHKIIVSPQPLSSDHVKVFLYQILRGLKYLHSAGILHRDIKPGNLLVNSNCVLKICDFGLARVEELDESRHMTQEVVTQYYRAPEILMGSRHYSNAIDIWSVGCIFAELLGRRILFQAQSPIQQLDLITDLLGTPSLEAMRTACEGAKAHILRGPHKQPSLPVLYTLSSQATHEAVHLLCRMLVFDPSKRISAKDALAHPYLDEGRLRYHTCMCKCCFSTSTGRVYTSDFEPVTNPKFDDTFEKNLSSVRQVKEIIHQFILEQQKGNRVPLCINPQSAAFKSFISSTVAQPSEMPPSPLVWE
Protocol: as §1

TSSK1 = biological target: T5, TSSK1 (Homo sapiens, UniProt Q9BXA7)
T5 construct: purchased Reaction Biology Europe GmbH (formerly ProQinase)
T5 sequence (Q9BXA7 1-367): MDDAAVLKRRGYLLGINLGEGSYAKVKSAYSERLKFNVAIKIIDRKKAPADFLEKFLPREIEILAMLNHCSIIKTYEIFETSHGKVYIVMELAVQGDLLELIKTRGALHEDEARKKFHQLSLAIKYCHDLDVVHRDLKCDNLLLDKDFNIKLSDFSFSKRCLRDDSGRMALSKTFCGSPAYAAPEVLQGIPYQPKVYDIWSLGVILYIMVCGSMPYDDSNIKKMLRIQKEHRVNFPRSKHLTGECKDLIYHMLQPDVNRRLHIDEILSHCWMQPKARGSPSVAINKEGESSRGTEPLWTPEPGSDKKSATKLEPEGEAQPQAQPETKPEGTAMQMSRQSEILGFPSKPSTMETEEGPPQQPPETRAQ
Protocol: as §1

PRKG1 = biological target: T6, PRKG1 (Homo sapiens, UniProt Q13976)
T6 construct: purchased Reaction Biology Europe GmbH (formerly ProQinase)
T6 sequence (Q13976 1-671): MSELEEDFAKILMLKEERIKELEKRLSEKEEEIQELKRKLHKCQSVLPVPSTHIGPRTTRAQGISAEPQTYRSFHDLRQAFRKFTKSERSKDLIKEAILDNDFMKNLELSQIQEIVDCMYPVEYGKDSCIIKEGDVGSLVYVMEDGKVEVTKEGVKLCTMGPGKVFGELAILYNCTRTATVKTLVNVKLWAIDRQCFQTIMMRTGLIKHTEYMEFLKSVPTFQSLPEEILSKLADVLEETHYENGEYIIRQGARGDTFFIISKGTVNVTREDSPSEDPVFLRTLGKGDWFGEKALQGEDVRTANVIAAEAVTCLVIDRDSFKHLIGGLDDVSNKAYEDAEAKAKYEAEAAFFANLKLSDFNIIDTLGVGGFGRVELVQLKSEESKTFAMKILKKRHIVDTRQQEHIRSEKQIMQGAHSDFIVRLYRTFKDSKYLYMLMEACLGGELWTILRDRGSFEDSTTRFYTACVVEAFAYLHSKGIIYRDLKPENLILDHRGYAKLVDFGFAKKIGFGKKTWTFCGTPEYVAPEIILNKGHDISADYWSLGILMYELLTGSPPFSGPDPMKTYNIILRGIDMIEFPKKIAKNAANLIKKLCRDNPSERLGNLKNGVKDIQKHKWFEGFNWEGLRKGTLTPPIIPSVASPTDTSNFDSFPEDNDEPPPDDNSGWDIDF
Protocol: as §1

ABL2 = biological target: T7, ABL2 (Homo sapiens, UniProt P42684)
T7 construct: purchased Reaction Biology Europe GmbH (formerly ProQinase)
T7 sequence (P42684 whole entry): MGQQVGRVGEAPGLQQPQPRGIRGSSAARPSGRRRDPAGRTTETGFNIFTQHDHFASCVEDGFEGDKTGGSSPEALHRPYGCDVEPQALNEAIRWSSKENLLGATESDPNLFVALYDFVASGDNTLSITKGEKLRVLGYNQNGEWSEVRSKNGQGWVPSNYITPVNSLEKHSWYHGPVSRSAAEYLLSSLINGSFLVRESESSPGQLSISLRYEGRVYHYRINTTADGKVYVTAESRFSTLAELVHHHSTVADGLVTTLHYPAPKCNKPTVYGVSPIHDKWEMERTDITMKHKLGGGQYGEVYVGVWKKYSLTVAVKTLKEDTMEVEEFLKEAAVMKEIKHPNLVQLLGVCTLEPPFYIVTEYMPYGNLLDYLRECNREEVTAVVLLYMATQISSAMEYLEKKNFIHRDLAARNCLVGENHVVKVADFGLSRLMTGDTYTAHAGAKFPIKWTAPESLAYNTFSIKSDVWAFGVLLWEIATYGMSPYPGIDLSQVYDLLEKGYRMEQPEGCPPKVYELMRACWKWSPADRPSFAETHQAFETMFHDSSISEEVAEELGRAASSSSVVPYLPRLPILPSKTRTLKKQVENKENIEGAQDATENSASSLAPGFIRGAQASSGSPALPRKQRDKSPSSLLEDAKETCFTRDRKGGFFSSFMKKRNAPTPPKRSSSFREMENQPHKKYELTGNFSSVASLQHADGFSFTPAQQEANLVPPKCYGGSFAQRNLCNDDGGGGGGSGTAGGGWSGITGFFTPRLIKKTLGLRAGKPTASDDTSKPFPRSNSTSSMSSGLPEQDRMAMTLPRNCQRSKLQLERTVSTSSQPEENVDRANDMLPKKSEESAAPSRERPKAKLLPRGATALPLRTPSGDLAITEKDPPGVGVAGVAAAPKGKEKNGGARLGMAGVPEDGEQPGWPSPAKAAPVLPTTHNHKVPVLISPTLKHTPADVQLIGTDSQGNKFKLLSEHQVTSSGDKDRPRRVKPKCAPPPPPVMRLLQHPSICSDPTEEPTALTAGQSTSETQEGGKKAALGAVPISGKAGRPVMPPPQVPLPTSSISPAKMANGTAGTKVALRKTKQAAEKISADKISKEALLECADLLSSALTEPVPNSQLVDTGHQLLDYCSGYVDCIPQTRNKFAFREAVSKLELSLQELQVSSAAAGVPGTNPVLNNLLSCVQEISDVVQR
Protocol: as §1

CK1γ1 = biological target: T8, CK1γ1 (Homo sapiens, UniProt Q9HCP0)
T8 construct: purchased Reaction Biology Europe GmbH (formerly ProQinase)
Protocol: as §1

SRMS = biological target: T9, SRMS (Homo sapiens, UniProt Q9H3Y6)
T9 construct: purchased Reaction Biology Europe GmbH (formerly ProQinase)
Protocol: as §1

PHKG2 = biological target: T10, PHKG2 (Homo sapiens, UniProt P15735)
T10 construct: purchased Reaction Biology Europe GmbH (formerly ProQinase)
T10 sequence (P15735 1-406): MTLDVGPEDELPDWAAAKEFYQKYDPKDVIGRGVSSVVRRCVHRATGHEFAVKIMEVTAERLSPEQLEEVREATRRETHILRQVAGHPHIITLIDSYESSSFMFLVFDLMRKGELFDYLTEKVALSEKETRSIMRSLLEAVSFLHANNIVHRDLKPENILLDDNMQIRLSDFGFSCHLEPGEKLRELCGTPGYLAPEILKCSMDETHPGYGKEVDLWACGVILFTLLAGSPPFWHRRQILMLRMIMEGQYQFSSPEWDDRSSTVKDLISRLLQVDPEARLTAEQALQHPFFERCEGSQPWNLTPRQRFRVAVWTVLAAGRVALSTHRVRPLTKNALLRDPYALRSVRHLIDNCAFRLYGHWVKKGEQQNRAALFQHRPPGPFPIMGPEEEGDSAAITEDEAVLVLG
Protocol: as §1

CDC42BPB = biological target: T11, CDC42BPB (Homo sapiens, UniProt Q9Y5S2)
T11 construct: purchased Reaction Biology Europe GmbH (formerly ProQinase)
Protocol: as §1

SRC = biological target: T12, SRC (Homo sapiens, UniProt P12931)
T12 construct: purchased Reaction Biology Europe GmbH (formerly ProQinase)
T12 sequence (P12931 whole entry): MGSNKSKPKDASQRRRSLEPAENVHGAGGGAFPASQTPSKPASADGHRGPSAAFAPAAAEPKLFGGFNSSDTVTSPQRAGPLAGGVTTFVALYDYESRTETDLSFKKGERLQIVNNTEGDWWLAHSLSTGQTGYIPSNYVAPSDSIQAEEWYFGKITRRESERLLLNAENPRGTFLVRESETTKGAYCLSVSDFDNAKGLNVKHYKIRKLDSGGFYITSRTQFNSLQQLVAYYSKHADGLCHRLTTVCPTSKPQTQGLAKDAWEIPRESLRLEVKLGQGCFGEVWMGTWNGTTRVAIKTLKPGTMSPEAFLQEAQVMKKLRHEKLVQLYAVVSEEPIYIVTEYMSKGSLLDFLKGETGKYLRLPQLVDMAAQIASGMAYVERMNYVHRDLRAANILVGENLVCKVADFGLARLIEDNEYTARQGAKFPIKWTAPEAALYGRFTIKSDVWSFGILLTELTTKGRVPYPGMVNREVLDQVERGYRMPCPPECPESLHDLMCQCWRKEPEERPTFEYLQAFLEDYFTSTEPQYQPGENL
Protocol: as §1

HIPK1 = biological target: T13, HIPK1 (Homo sapiens, UniProt Q86Z02)
T13 construct: purchased Reaction Biology Europe GmbH (formerly ProQinase)
T13 sequence (Q86Z02 whole entry): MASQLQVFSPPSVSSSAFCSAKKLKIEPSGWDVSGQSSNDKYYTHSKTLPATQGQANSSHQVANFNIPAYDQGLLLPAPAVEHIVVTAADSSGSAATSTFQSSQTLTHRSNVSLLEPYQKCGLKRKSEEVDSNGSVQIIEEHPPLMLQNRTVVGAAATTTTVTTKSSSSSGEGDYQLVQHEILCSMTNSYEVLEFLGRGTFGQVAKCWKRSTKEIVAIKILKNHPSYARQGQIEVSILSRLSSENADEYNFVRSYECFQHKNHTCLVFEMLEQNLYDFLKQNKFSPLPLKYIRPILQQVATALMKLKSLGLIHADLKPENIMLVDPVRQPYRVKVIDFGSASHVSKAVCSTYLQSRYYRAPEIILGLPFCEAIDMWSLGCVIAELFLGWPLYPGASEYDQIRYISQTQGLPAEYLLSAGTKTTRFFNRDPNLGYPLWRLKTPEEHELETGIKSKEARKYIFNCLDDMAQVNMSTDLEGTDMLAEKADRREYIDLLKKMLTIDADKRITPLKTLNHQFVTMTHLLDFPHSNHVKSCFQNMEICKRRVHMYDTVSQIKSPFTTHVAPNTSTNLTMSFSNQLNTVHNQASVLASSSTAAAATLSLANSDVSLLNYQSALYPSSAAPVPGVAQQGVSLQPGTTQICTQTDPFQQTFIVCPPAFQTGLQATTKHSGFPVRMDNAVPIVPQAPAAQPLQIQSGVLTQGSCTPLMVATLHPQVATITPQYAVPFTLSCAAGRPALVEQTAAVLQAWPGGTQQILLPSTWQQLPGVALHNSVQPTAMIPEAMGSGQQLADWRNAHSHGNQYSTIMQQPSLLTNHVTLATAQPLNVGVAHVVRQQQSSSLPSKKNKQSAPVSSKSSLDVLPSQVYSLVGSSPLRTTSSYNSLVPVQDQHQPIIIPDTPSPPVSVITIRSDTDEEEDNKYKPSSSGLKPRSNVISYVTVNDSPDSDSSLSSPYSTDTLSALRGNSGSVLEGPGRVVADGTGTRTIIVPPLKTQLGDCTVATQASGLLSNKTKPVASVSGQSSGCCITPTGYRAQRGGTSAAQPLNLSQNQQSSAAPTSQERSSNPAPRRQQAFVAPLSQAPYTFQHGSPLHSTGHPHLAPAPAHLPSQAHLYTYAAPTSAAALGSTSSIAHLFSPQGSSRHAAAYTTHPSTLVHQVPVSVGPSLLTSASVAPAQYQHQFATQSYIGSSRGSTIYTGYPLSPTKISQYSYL
Protocol: as §1

T1 sequence (P08069 31-1367): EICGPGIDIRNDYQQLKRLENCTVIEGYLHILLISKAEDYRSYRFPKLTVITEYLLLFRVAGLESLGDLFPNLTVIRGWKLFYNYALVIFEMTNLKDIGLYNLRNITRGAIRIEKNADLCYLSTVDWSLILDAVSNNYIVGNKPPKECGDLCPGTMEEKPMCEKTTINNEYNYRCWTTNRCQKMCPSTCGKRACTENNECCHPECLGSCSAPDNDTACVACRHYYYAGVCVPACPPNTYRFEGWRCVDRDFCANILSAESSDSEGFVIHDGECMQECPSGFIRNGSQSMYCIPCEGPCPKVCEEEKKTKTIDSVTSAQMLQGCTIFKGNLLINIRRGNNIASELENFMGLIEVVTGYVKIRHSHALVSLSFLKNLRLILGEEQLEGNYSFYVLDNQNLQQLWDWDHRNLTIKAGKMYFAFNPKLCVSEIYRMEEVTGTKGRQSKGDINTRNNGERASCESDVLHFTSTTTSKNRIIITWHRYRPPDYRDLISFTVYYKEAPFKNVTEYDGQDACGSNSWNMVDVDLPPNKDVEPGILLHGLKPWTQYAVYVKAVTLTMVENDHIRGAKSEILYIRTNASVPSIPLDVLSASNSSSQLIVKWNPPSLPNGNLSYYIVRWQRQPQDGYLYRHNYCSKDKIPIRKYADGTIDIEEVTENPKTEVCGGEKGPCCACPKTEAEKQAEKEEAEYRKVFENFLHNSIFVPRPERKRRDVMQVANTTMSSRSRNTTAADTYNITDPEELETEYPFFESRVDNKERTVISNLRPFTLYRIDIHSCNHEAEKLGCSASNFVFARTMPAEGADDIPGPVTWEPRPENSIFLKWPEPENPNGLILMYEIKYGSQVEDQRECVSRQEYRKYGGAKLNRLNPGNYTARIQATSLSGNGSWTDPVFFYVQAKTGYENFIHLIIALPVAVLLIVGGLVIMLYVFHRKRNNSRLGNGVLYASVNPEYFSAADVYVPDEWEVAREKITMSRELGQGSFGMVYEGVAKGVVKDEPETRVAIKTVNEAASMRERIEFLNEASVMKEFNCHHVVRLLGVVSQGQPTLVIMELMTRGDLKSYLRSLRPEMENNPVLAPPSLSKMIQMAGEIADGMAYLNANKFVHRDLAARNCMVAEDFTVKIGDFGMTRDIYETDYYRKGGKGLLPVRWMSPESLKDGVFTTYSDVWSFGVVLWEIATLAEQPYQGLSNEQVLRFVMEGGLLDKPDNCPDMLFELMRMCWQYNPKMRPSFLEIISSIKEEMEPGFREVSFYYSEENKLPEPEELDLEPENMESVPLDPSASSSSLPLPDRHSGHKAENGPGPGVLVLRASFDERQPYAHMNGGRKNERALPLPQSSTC

Row | SMILES | residual kinase activity (IGF1R; 0.3 µM) | residual kinase activity (COT; 0.3 µM) | residual kinase activity (GSK3α; 0.3 µM) | residual kinase activity (NLK; 0.3 µM) | residual kinase activity (TSSK1; 0.3 µM) | residual kinase activity (PRKG1; 0.3 µM) | residual kinase activity (ABL2; 0.3 µM) | residual kinase activity (CK1γ1; 0.3 µM) | residual kinase activity (SRMS; 0.3 µM) | residual kinase activity (PHKG2; 0.3 µM) | residual kinase activity (CDC42BPB; 0.3 µM) | residual kinase activity (SRC; 0.3 µM) | residual kinase activity (HIPK1; 0.3 µM) | also measured
1 | COc1ccnc2[nH]cc(-c3cc(N)nc(N)c3)c12 [meriolin 16] | 99 % of control | 86 % of control | 93 % of control | 81 % of control | 83 % of control | 30 % of control | 91 % of control | 38 % of control | 93 % of control | 52 % of control | 2 % of control | 86 % of control | 10 % of control | residual kinase activity (IGF1R; 0.03 µM): 116 % of control; residual kinase activity (COT; 0.03 µM): 104 % of control; residual kinase activity (GSK3α; 0.03 µM): 99 % of control; residual kinase activity (NLK; 0.03 µM): 96 % of control; residual kinase activity (TSSK1; 0.03 µM): 109 % of control; residual kinase activity (PRKG1; 0.03 µM): 75 % of control; residual kinase activity (ABL2; 0.03 µM): 95 % of control; residual kinase activity (CK1γ1; 0.03 µM): 87 % of control; residual kinase activity (SRMS; 0.03 µM): 101 % of control; residual kinase activity (PHKG2; 0.03 µM): 74 % of control; residual kinase activity (CDC42BPB; 0.03 µM): 37 % of control; residual kinase activity (SRC; 0.03 µM): 95 % of control; residual kinase activity (HIPK1; 0.03 µM): 49 % of control
2 | c1ccc(CNc2cc(-c3c[nH]c4ncccc34)ccn2)cc1 [meriolin 36] | 128 % of control | 85 % of control | 41 % of control | 78 % of control | 50 % of control | 6 % of control | 56 % of control | 23 % of control | 93 % of control | 52 % of control | 0 % of control | 88 % of control | 47 % of control | residual kinase activity (IGF1R; 3 µM): 83 % of control; residual kinase activity (COT; 3 µM): 92 % of control; residual kinase activity (GSK3α; 3 µM): 7 % of control; residual kinase activity (NLK; 3 µM): 29 % of control; residual kinase activity (TSSK1; 3 µM): 15 % of control; residual kinase activity (PRKG1; 3 µM): 1 % of control; residual kinase activity (ABL2; 3 µM): 18 % of control; residual kinase activity (CK1γ1; 3 µM): 3 % of control; residual kinase activity (SRMS; 3 µM): 73 % of control; residual kinase activity (PHKG2; 3 µM): 23 % of control; residual kinase activity (CDC42BPB; 3 µM): 0 % of control; residual kinase activity (SRC; 3 µM): 24 % of control; residual kinase activity (HIPK1; 3 µM): 10 % of control

— paper PMC11167047 (Cell Death Discovery, 2024)
